This is an account of results in publication doi:10.1101/2022.11.11.516135v3 (biorxiv, 2024).

The test deals with G3BP1-NTF2 (residues 1-139); NTF2-like domain of G3BP1 (Homo sapiens, UniProt Q13283). Put plainly: biochemical. The format is binding.
G3BP1-NTF2 (residues 1-139); NTF2-like domain of G3BP1, sequence (Q13283 1-139): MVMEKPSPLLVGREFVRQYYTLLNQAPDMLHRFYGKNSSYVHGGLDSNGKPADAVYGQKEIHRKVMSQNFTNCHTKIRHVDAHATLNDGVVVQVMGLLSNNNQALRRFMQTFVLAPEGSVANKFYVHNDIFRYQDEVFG
With `CN1C[C@H](C(=O)N[C@]2(C)O[C@@]3(O)[C@@H]4CCCN4C(=O)[C@H](Cc4ccccc4)N3C2=O)C[C@@H]2c3cccc4[nH]cc(c34)C[C@H]21` [DHD, Dihydroergotamine], the affinity, expressed as Kd, was 54 µM. To `O=C1NCN(c2ccccc2)C12CCN(CCCC(c1ccc(F)cc1)c1ccc(F)cc1)CC2` [FLU, Fluspiriline] belongs 71.4 µM; to `CNC(=O)c1c(F)cccc1Nc1nc(Nc2cc3c(cc2OC)CCN3C(=O)CN(C)C)nc2[nH]ccc12` [GSK, GSK1838705A], 98 µM; to `COc1ccc(Br)cc1S(=O)(=O)NC(=O)/C=C/c1ccccc1Cc1ccc2ccccc2c1` [L-7, L-798106], 18.7 µM. To `CC[C@H](NC(=O)c1c(C)c(-c2ccccc2)nc2ccccc12)c1ccccc1` [SB2, SB_222200] belongs 66 µM.

In general, Kd refers to the concentration at which binding is half-saturated. Read a high Kd as weaker binding.
